Data on one compound can be found in ChEMBL document CHEMBL3352493, “Xylarianaphthol-1, a novel dinaphthofuran derivative, activates p21 promoter in a p53-independent manner” (Bioorg Med Chem Lett, 2014).

For test [1], the system named is MG-63. The test is described as follows: Increase in p21 protein expression in wild-type human MG63 cells at 0.01 to 0.3 uM by Western blotting method. It is filed as functional, cell-based.
The test system of test [2] is MG-63. The test is described as follows: Induction of p53-independent p21 promoter activation (unknown origin) transfected in human MG63 cells expressing luciferase reporter gene by luciferase reporter gene assay. It is filed as cell-based.
In test [3] the test system is MG-63. Kind of test: Induction of p53-independent p21 promoter activation (unknown origin) transfected in human MG63 cells expressing luciferase reporter gene at 0.3 uM by luciferase reporter gene assay relative to control. It is filed as cell-based. (In a reporter assay the amount or activity of a reporter protein is the signal.)

Molecules are shown by their SMILES. Calls of active or inactive are those of the source. The calls are words filed in the database; no cut-off is given here.

For the compound `COc1cccc2c1c(O)cc1oc3c(ccc4cccc(O)c43)c12`, the outcome in the test with MG-63 [1] was Active. For the same compound, the Activity entry in the test with MG-63 [2] was “Dose-dependent effect”. In the test with MG-63 [3], this compound displayed a fold change (FC) of 2.5.
